Patent US20170233628A1, “ENZYME DES[…] DES[…] PRODUCING SULFUR CONTAINING COMPOUNDS IN DOWNHOLE FLUIDS” (BAKER HUGHES INCORPORATED, priority 2016, published 2017)

Test system: sulfur producing enzymes
Assay: H2S production (colour of sample) by sterile, enzyme-containing SRB supernatant after treatment with inhibitors
Format: biochemical, sulfate-reducing bacteria (SRBs) from produced water sources
Details: sterile enzyme-containing supernatant in LB, 3 months at 37° C.
Method: Now turning to the Figures, FIG. 1 illustrates the ability of sterile solutions to produce hydrogen sulfide (H2S). Six samples were formed with the following procedure. Each sample includes 100 mL of lysogeny broth (LB) ([…] Tryptone, 5 mg/ml yeast extract, 5 mg/mL NaCl, pH 7.5). Sample A is the blank sample, i.e. no sulfur metabolizing enzymes were added. Samples B-D include 0.5 mL of cultured sulfate-reducing bacteria (SRBs) from produced water sources. […]
Sample E includes 0.5 mL of supernatant after the same cultured SRBs were additionally sonicated. A QSonic sonicator sonicated the cultured SRBs for one minute cycles at 70% amplitude. The cell debris was removed via centrifugation at 3000 RPM for 25 minutes. 0.5 mL of the remaining supernatant was added to Sample E.
The remaining supernatant was filtered through a […] pore size PVDF membrane. […]
Samples 1-9 included the same components as that of Sample F from Example 1, i.e. 0.5 mL of the sterile, enzyme-containing, supernatant. […] Samples 1-9 were incubated at 37° C. and monitored periodically. […]

NC(=O)CI [Iodoacetamide, iodoacetamide]
inactivation of sulfur producing enzymes: effective in permanently inactivating enzymes

CCCCCCCCCCCCOS(=O)(=O)[O-].[Na+] [SDS, sodium dodecyl sulfate]
inactivation of sulfur producing enzymes: effective in permanently inactivating enzymes
